The values below come from ChEMBL document CHEMBL2434949, “Evaluation of licorice flavonoids as protein tyrosine phosphatase 1B inhibitors” (Bioorg Med Chem Lett, 2013).

Activity calls are given as the source filed them. No cut-off for these calls is given here.

Test [1] addresses Dual specificity protein phosphatase 3 (Homo sapiens) (UniProt P51452). In words: Inhibition of VHR (unknown origin) at 100 uM.
For test [2], the target named is T1, Tyrosine-protein phosphatase non-receptor type 2 (Homo sapiens) (UniProt P17706).
T1 sequence (whole entry): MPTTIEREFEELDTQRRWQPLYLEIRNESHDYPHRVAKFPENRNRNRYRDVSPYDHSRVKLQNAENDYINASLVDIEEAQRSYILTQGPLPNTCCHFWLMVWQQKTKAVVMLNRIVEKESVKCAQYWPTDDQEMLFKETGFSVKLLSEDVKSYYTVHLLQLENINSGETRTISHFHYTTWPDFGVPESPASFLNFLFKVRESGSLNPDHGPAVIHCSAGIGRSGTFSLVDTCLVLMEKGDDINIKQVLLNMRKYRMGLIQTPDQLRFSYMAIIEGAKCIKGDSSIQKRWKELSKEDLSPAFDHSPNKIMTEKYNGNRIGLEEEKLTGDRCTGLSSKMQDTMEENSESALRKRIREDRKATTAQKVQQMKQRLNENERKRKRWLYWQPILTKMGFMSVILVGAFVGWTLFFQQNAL
In words: Inhibition of TCPTP (unknown origin) at 100 uM.

For test [3], the target named is T2, Tyrosine-protein phosphatase non-receptor type 1 (Homo sapiens) (UniProt P18031).
T2 sequence (whole entry): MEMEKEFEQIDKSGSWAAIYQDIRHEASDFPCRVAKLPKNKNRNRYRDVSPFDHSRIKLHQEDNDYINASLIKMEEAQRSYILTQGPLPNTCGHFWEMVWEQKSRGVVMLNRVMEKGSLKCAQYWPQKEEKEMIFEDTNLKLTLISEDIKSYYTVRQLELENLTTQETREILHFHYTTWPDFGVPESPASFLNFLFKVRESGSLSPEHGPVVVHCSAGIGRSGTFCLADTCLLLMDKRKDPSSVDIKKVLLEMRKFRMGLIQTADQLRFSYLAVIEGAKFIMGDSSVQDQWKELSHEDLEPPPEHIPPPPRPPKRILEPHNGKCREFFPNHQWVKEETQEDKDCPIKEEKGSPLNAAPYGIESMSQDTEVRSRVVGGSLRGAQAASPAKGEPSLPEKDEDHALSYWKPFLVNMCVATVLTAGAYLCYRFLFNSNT
In words: Inhibition of PTP1B (unknown origin) using p-nitrophenyl phosphate as substrate at 100 uM.

Test [4] deals with T3, Tyrosine-protein phosphatase non-receptor type 1 (Homo sapiens, UniProt P18031).
T3 sequence (P18031 whole entry): T2 sequence (whole entry)
In words: Inhibition of PTP1B (unknown origin) using p-nitrophenyl phosphate as substrate.

For test [5], the target named is T2, Tyrosine-protein phosphatase non-receptor type 1 (Homo sapiens). In words: Mixed type inhibition of PTP1B (unknown origin) using p-nitrophenyl phosphate as substrate by Lineweaver-Burk plot analysis.
For test [6] the target is unchanged. In words: Non-competitive inhibition of PTP1B (unknown origin) using p-nitrophenyl phosphate as substrate by Lineweaver-Burk plot analysis.
Test [7] has the same target. The test is described as follows: Inhibition of PTP1B in human HepG2 cells assessed as increase of insulin-induced Akt phosphorylation at Ser473 at 20 to 100 uM after 5 mins by Western blotting. It counts as cell-based.
For test [8] the target is unchanged.
Description: Competitive inhibition of PTP1B (unknown origin) using p-nitrophenyl phosphate as substrate by Lineweaver-Burk plot analysis

Chain of Dual specificity protein phosphatase 3 (Homo sapiens) (P51452 whole entry, looked up): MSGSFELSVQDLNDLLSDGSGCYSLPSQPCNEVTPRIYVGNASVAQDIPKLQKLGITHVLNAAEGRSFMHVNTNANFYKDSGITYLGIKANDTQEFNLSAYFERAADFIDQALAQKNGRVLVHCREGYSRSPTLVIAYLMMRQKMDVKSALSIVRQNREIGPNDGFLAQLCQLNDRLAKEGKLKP

The inhibition is the change of the read-out against control, counted positive when it falls. Turning to `COc1cc(O)cc2occ(-c3cc(O)c(O)c(CC=C(C)C)c3)c(=O)c12`, the inhibition in test [1] is > 70%; in test [2], 4%.
As for `CC1(C)C=Cc2c(ccc3c2OC[C@@H](c2ccc(O)c4c2OC(C)(C)C=C4)C3)O1`, in test [3], the inhibition is < 50%.
As usually defined, the IC50 is the concentration at which inhibition is half-maximal. A lower IC50 goes with greater potency. Turning to `CC1(C)C=Cc2c(ccc3c2OC[C@@H](c2ccc(O)cc2O)C3)O1` [GLABRIDIN], the IC50 in test [4] was 73.4 µM.
Turning to `O=c1c(O[C@@H]2O[C@H](CO)[C@@H](O)[C@H](O)[C@H]2O)c(-c2ccc(O)cc2)oc2cc(O)cc(O)c12`, in test [3], the inhibition was < 50%.
The same measure, in the same setting: next, `CC(C)=CCc1c(O)ccc2c1O[C@H](c1ccc3c(c1)C=CC(C)(C)O3)CC2=O`: < 50%; `CC1(C)C=Cc2cc([C@@H]3CC(=O)c4ccc5c(c4O3)C=CC(C)(C)O5)ccc2O1`: < 50%.
Take `CC1(C)C=Cc2cc(/C=C/C(=O)c3ccc(O)cc3O)ccc2O1`: half-maximal inhibition in test [4] (IC50) required 44.3 µM.
In test [4], `COc1c([C@H]2c3c(cc(O)c(O)c3OC)C=C(C(=O)c3ccc(O)cc3)[C@H]2C(=O)c2ccc(O)cc2)ccc(O)c1O` (relative stereo) showed an IC50 of 36.2 µM.
Regarding `O=C(/C=C/c1ccc(O[C@@H]2O[C@H](CO)[C@@H](O)[C@H](O)[C@H]2O)cc1)c1ccc(O)cc1O`, the inhibition in test [3] is < 50%.
On the same count and under the same terms, as for `COc1ccc([C@@H]2COc3c(ccc4c3C=CC(C)(C)O4)C2)c(O)c1`, the figure is < 50%.
Molecule `COc1c(/C=C/C(=O)c2ccc(O)cc2)ccc(O)c1CC=C(C)C` yielded an IC50 in test [4] of 57 µM.
Consider `COc1c(/C=C/C(=O)c2ccc(O)cc2)ccc(O)c1O`, for which the inhibition in test [3] is < 50%.
With `CC(C)=CCc1c(O)ccc(C(=O)/C=C/c2ccc(O)cc2)c1O` [ISOBAVACHALCONE], the inhibition entry in test [5] was “Active”. Moreover, the inhibition in test [1] is > 70%; in test [2] it was 4%. For the same molecule, in test [4], the IC50 stood at 27.3 µM.
For the molecule `COc1c(CC=C(C)C)c(O)cc(O)c1-c1oc2cc(O)ccc2c1C`, the inhibition came to 35% in test [1] and 4% in test [2].
Consider `CC(C)=CCc1c(O)ccc2c1O[C@H](c1ccc3c(c1)CC(O)C(C)(C)O3)CC2=O` (some centres undefined), for which the IC50 in test [4] came to 52.2 µM.
Same read-out and setting: as for `COc1c(/C=C/C(=O)c2ccc(O)c(O)c2)ccc(O)c1CC=C(C)C`, the figure is 59.5 µM.
Turning to `CC(C)=CCc1c(O)ccc2c1oc(=O)c1c3ccc(O)cc3oc21`, the inhibition in test [3] is < 50%.
The same measure, in the same setting: as for `O=c1c(O[C@@H]2O[C@H](CO)[C@@H](O)[C@H](O)[C@H]2O)c(-c2ccc(O)c(O)c2)oc2cc(O)cc(O)c12`, the figure is < 50%.
In test [4], `CC1(C)C=Cc2c(ccc(C(=O)/C=C/c3ccc(O)cc3)c2O)O1` gave an IC50 of 74.1 µM. In other words, the double-digit micromolar range.
For the molecule `O=C1C[C@@H](c2ccc(O[C@@H]3O[C@H](CO)[C@@H](O)[C@H](O)[C@H]3O)cc2)Oc2cc(O)ccc21`, the inhibition in test [3] is < 50%.
`CC1(C)C=Cc2c(ccc(-c3coc4cc(O)ccc4c3=O)c2O)O1` [GLABRONE] registered an IC50 in test [4] of 66.3 µM.
For `CC(C)=CCc1c(O)ccc2c1O[C@H](c1ccc3c(c1)C(O)C(O)C(C)(C)O3)CC2=O` (some centres undefined), the inhibition in test [3] is < 50%.
`CC(C)=CCc1cc(C(=O)C2(c3cc(O)c(O)cc3/C=C3\Oc4c(ccc(O)c4CC=C(C)C)C3=O)Oc3cc(O)c(CC=C(C)C)cc3C2=O)ccc1O` (centres undefined) [LICOAGRONE] gave a Kiuc in test [6] of 6.3 µM. Moreover, in test [7], the result was Active. Moreover, the values for the inhibition in test [1] and in test [2] were > 70% and 4%, respectively. In addition, half-maximal inhibition in test [4] (IC50) required 6 µM.
Take `CCCCCCCCCCCCCCCC(=O)C1=C(O)[C@@H](CO)OC1=O`: the IC50 in test [4] is 4.6 µM.
The molecule `CC(C)=CCc1cc(C(=O)CC(=O)c2cc(CC=C(C)C)c(O)cc2O)ccc1O` displayed an IC50 in test [4] of 32.6 µM.
The same measure, in the same setting: next, `CC(C)=CCc1cc([C@@H]2CC(=O)c3c(O)cc(O)c(CC=C(C)C)c3O2)ccc1O` [LESPEDEZAFLAVANONE B]: 62.4 µM; `CC(C)=CCc1cc(C[C@@H](O)C(=O)c2cc(CC=C(C)C)c(O)cc2O)ccc1O`: 90.5 µM.
With `O=c1cc(-c2ccc(O)cc2)oc2cc(O)ccc12`, the inhibition in test [3] was < 50%.
Take `COc1c(/C=C/C(=O)c2ccc(O)cc2)ccc2c1CC(C(C)(C)O)O2` (centres undefined): the inhibition in test [3] was < 50%.
Still for that read-out and setting: next, `COc1cc(O[C@@H]2O[C@H](CO)[C@@H](O)[C@H](O)[C@H]2O)c(-c2coc3cc(O)c(OC)cc3c2=O)cc1O`: < 50%.
Consider `CC(C)=CCc1cc([C@]23Oc4cc(O)c(CC=C(C)C)cc4C(=O)[C@H]2[C@H]2c4ccc(O)cc4O[C@@H]4Oc5c(ccc(O)c5CC=C(C)C)[C@@]42O3)ccc1O` [LICOAGRODIN], for which the inhibition entry in test [5] was “Active”. For the same molecule, the inhibition in test [1] was found to be 50%; in test [2], 4%. Further, the IC50 in test [4] was 11.5 µM.
As to `COc1ccc(-c2coc3cc(O)c(OC)cc3c2=O)cc1`, the inhibition in test [3] is < 50%.
On the same count and under the same terms, as for `O=C1C[C@@H](c2ccc(O)cc2)Oc2cc(O)ccc21`, the figure is < 50%.
`CC(C)=CCc1cc([C@@H]2CC(=O)c3ccc(O)c(CC=C(C)C)c3O2)ccc1O` [GLABROL] showed an IC50 in test [4] of 37.5 µM.
Consider `COc1ccc2c(c1)O[C@H]1c3ccc(O)c(CC=C(C)C)c3OC[C@@H]21`, for which the inhibition in test [3] was < 50%.
Take `CC(C)=CCc1cc(-c2cc(=O)c3ccc(O)cc3o2)ccc1O`: the inhibition in test [3] was < 50%.
Turning to `CC(C)=CCc1cc([C@@H]2CC(=O)c3ccc(O)cc3O2)ccc1O`, the inhibition in test [3] is < 50%.
Regarding `O=c1cc(-c2ccc(O)cc2)oc2c([C@@H]3O[C@H](CO)[C@@H](O)[C@H](O)[C@H]3O)c(O)c([C@@H]3OC[C@H](O)[C@H](O)[C@H]3O)c(O)c12`, the inhibition in test [3] was < 50%.
`CC1(C)C=Cc2cc(C(=O)CC(=O)c3ccc(O)cc3)c(O)cc2O1`: in test [3], the inhibition was < 50%.
On to `CC(C)=CCc1cc([C@H]2Oc3c(ccc(O)c3CC=C(C)C)C(=O)[C@@H]2O)ccc1O`, for which inhibition in test [4] was half-maximal at 75.1 µM (IC50).
Still for that read-out and setting: next, `COc1ccc(-c2coc3cc(O)c(OC)cc3c2=O)cc1O` [ODORATIN]: 70 µM.
As to `O=c1cc(-c2ccc(O)cc2)oc2c([C@@H]3O[C@H](CO)[C@@H](O)[C@H](O)[C@H]3O)c(O)c([C@@H]3O[C@H](CO)[C@@H](O)[C@H](O)[C@H]3O)c(O)c12`, the inhibition in test [3] was < 50%.
Take `CC(C)=CCc1c(O)ccc2c1O/C(=C\c1ccc(O)c(O)c1)C2=O` [LICOAGROAURONE]: the results for the inhibition in test [1] and in test [2] were 50% and 4%, respectively. In test [8], this molecule returned a Kic of 24 µM. For the same molecule, in test [4], 23.9 µM corresponded to half-maximal inhibition (IC50).
In the case of `COc1cc(O)ccc1/C=C/C(=O)c1ccc(O)cc1`, the inhibition in test [3] is < 50%.
